Experimental data: patent publication US9862717B2 (Merck Patent GmbH, priority 2014, dated 2018)

Molecular target: T1, CDK8/CycC (Homo sapiens, UniProt P49336)
T1 construct: purchased Invitrogen PV4402
Test: FRET based Lanthascreen binding competition assay for CDK8 inhibitory activity
Conditions: CDK8 co-expressed with CycC; class symbols; read-out: IC50
Summary of the method: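 Competition binding of a dye-labeled ATP-competitive Alexa647 probe to CDK8 co-expressed with CycC, Eu-labeled via biotinylated anti-His antibody/streptavidin.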

T1 sequence (P49336 whole entry): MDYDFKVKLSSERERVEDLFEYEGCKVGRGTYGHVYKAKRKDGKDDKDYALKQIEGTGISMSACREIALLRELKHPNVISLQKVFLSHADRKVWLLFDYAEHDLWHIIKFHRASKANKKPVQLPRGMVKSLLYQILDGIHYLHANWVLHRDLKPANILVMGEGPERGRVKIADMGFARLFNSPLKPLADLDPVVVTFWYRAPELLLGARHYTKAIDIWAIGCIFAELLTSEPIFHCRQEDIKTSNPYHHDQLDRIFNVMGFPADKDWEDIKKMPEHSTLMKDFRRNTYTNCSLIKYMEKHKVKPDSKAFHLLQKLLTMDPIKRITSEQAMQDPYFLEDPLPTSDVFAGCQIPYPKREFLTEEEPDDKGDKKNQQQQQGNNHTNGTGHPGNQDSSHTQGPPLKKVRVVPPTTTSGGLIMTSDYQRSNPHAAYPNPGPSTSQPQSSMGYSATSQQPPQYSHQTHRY
T1 sequence (P24863 whole entry partner): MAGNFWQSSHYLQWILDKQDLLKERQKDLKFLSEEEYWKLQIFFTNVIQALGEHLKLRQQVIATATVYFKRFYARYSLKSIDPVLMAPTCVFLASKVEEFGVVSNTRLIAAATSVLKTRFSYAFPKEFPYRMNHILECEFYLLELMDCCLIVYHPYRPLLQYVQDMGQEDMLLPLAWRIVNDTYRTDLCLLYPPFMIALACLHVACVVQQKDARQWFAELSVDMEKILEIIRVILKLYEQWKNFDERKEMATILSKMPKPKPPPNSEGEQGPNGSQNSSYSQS

| SMILES | IC50 [µM] |
| --- | --- |
| Cc1n[nH]c2ncc(C(=O)N3CC[C@](O)(c4ccccc4)C3)cc12 [compound 198, ((S)-3-Hydroxy-3-phenyl-pyrrolidin-1-yl)-(3-methyl-1H-pyrazolo[3,4-b]pyridin-5-yl)-methanone] | 1 to 10 |
| Cc1n[nH]c2cc(F)c(C(=O)N3CCC[C@@H]3c3ccc(Cl)cc3)cc12 [compound 203, [(R)-2-(4-Chloro-phenyl)-pyrrolidin-1-yl]-(6-fluoro-3-methyl-1H-indazol-5-yl)-methanone] | 1 to 10 |
| Cc1n[nH]c2ncc(C(=O)N3CCO[C@@](C)(c4ccc(Cl)cc4)C3)cc12 [compound 214, [(S)-2-(4-Chloro-phenyl)-2-methyl-morpholin-4-yl]-(3-methyl-1H-pyrazolo[3,4-b]pyridin-5-yl)-methanone] | 1 to 10 |
| Cc1n[nH]c2ncc(C(=O)N3CCNC(=O)[C@H]3c3ccc(F)cc3)cc12 [compound 215, (R)-3-(4-Fluoro-phenyl)-4-(3-methyl-1H-pyrazolo[3,4-b]pyridine-5-carbonyl)-piperazin-2-one] | 1 to 10 |
| COc1cccc([C@@H]2CCCN2C(=O)c2cnc3[nH]nc(C)c3c2)c1 [compound 222, [(S)-2-(3-Methoxy-phenyl)-pyrrolidin-1-yl]-(3-methyl-1H-pyrazolo[3,4-b]pyridin-5-yl)-methanone] | 0.1 to 1 |
| COc1ccc([C@H]2CCCN2C(=O)c2cnc3[nH]nc(C)c3c2)cc1 [compound 223, [(R)-2-(4-Methoxy-phenyl)-pyrrolidin-1-yl]-(3-methyl-1H-pyrazolo[3,4-b]pyridin-5-yl)-methanone] | 1 to 10 |
| COc1cccc([C@H]2CCCN2C(=O)c2cnc3[nH]nc(C)c3c2)c1 [compound 224, [(R)-2-(3-Methoxy-phenyl)-pyrrolidin-1-yl]-(3-methyl-1H-pyrazolo[3,4-b]pyridin-5-yl)-methanone] | 1 to 10 |
| Cc1n[nH]c2ncc(C(=O)N3CCC[C@@H]3c3ccc(Cl)cc3F)cc12 [compound 226, [(R)-2-(4-Chloro-2-fluoro-phenyl)-pyrrolidin-1-yl]-(3-methyl-1H-pyrazolo[3,4-b]pyridin-5-yl)-methanone] | 1 to 10 |
| Cc1n[nH]c2ncc(C(=O)N3CCC[C@@H]3c3ccc(Cl)c(F)c3)cc12 [compound 228, [(R)-2-(4-Chloro-3-fluoro-phenyl)-pyrrolidin-1-yl]-(3-methyl-1H-pyrazolo[3,4-b]pyridin-5-yl)-methanone] | 1 to 10 |
| Cc1n[nH]c2ncc(C(=O)N3CCC[C@@H]3c3ccc4cn[nH]c4c3)cc12 [compound 229, [(R)-2-(1H-Indazol-6-yl)-pyrrolidin-1-yl]-(3-methyl-1H-pyrazolo[3,4-b]pyridin-5-yl)-methanone] | 1 to 10 |
| Cc1n[nH]c2ncc(C(=O)N3C[C@@H](C)C[C@@H]3c3ccc(C(F)(F)F)cc3)cc12 [compound 231, (3-Methyl-1H-pyrazolo[3,4-b]pyridin-5-yl)-[(2R,4S)-4-methyl-2-(4-trifluoromethyl-phenyl)-pyrrolidin-1-yl]-methanone] | 1 to 10 |
| Cc1n[nH]c2ncc(C(=O)N3CCC(C(N)=O)CC3c3ccccc3)cc12 (centres unmarked) [compound 235, 1-(3-Methyl-1H-pyrazolo[3,4-b]pyridine-5-carbonyl)-2-phenyl-piperidine-4-carboxylic acid amide] | 0.1 to 1 |

Other lines, results leading:

| IC50 [µM] | SMILES |
| --- | --- |
| 0.01 to 0.1 | Cc1n[nH]c2ncc(C(=O)N3CCCC3c3ccc(Cl)c(Cl)c3)cc12 (centres unmarked) [compound 188, [2-(3,4-Dichloro-phenyl)-pyrrolidin-1-yl]-(3-methyl-1H-pyrazolo[3,4-b]pyridin-5-yl)-methanone] |
| < 0.01 | CC(C)c1ccc([C@@H]2CCCN2C(=O)c2ccc3[nH]nc(N)c3c2)cc1 [compound 194, (3-Amino-1H-indazol-5-yl)-[(S)-2-(4-isopropyl-phenyl)-pyrrolidin-1-yl]-methanone] |
| 0.1 to 1 | CC(C)c1ccc([C@H]2CCCN2C(=O)c2ccc3[nH]nc(N)c3c2)cc1 [compound 195, (3-Amino-1H-indazol-5-yl)-[(R)-2-(4-isopropyl-phenyl)-pyrrolidin-1-yl]-methanone] |
| < 0.01 | Cc1n[nH]c2ncc(C(=O)N3CCC[C@H]3c3ccc(C(C)C)cc3)cc12 [compound 196, [(S)-2-(4-Isopropyl-phenyl)-pyrrolidin-1-yl]-(3-methyl-1H-pyrazolo[3,4-b]pyridin-5-yl)-methanone] |
| 0.1 to 1 | Cc1n[nH]c2ncc(C(=O)N3CCC[C@@H]3c3ccc(C(C)C)cc3)cc12 [compound 197, [(R)-2-(4-Isopropyl-phenyl)-pyrrolidin-1-yl]-(3-methyl-1H-pyrazolo[3,4-b]pyridin-5-yl)-methanone] |
| 0.1 to 1 | Cc1n[nH]c2ncc(C(=O)N3CCC3c3ccc(F)cc3)cc12 (centres unmarked) [compound 200, [2-(4-Fluoro-phenyl)-azetidin-1-yl]-(3-methyl-1H-pyrazolo[3,4-b]pyridin-5-yl)-methanone] |
| < 0.01 | Cc1n[nH]c2ccc(C(=O)N3CC[C@H]3c3ccc(F)cc3)cc12 [compound 204, [(S)-2-(4-Fluoro-phenyl)-azetidin-1-yl]-(3-methyl-1H-indazol-5-yl)-methanone] |
| < 0.01 | Cc1n[nH]c2cc(F)c(C(=O)N3CCC[C@H]3c3ccc(Cl)cc3)cc12 [compound 206, [(S)-2-(4-Chloro-phenyl)-pyrrolidin-1-yl]-(6-fluoro-3-methyl-1H-indazol-5-yl)-methanone] |
| 0.01 to 0.1 | Cc1n[nH]c2ccc(C(=O)N3CC[C@@H]3c3ccc(F)cc3)cc12 [compound 207, [(R)-2-(4-Fluoro-phenyl)-azetidin-1-yl]-(3-methyl-1H-indazol-5-yl)-methanone] |
| 0.01 to 0.1 | Nc1n[nH]c2ccc(C(=O)N3CCC[C@H]3c3ccc(C(F)(F)F)cc3)cc12 [compound 208, (3-Amino-1H-indazol-5-yl)-[(S)-2-(4-trifluoromethyl-phenyl)-pyrrolidin-1-yl]-methanone] |
| 0.1 to 1 | Nc1n[nH]c2ccc(C(=O)N3CCC[C@@H]3c3ccc(C(F)(F)F)cc3)cc12 [compound 209, (3-Amino-1H-indazol-5-yl)-[(R)-2-(4-trifluoromethyl-phenyl)-pyrrolidin-1-yl]-methanone] |
| < 0.01 | CSc1n[nH]c2ccc(C(=O)N3CCC[C@H]3c3ccc(Cl)cc3)cc12 [compound 210, [(S)-2-(4-Chloro-phenyl)-pyrrolidin-1-yl]-(3-methylsulfanyl-1H-indazol-5-yl)-methanone] |
| 0.1 to 1 | COC(=O)C1CCN(C(=O)c2cnc3[nH]nc(C)c3c2)C(c2ccccc2)C1 (centres unmarked) [compound 211, 1-(3-Methyl-1H-pyrazolo[3,4-b]pyridine-5-carbonyl)-2-phenyl-piperidine-4-carboxylic acid methyl ester] |
| < 0.01 | O=C(c1ccc2[nH]nc(F)c2c1)N1CCC[C@H]1c1ccc(Cl)cc1 [compound 216, [(S)-2-(4-Chloro-phenyl)-pyrrolidin-1-yl]-(3-fluoro-1H-indazol-5-yl)-methanone] |
| 0.01 to 0.1 | O=C(c1ccc2[nH]nc(Cl)c2c1)N1CCC[C@H]1c1ccc(Cl)cc1 [compound 217, (3-Chloro-1H-indazol-5-yl)-[(S)-2-(4-chloro-phenyl)-pyrrolidin-1-yl]-methanone] |
| 0.01 to 0.1 | O=C(c1ccc2[nH]nc(Cl)c2c1)N1CCC(c2ccc(Cl)cc2)C1 (centres unmarked) [compound 218, (3-Chloro-1H-indazol-5-yl)-[3-(4-chloro-phenyl)-pyrrolidin-1-yl]-methanone] |
| 0.01 to 0.1 | O=C(c1ccc2[nH]nc(Cl)c2c1)N1CCCC1c1ccc(C(F)(F)F)cc1 (centres unmarked) [compound 219, (3-Chloro-1H-indazol-5-yl)-[2-(4-trifluoromethyl-phenyl)-pyrrolidin-1-yl]-methanone] |
| 0.01 to 0.1 | CS(=O)(=O)c1n[nH]c2ccc(C(=O)N3CCC[C@H]3c3ccc(Cl)cc3)cc12 [compound 220, [(S)-2-(4-Chloro-phenyl)-pyrrolidin-1-yl]-(3-methanesulfonyl-1H-indazol-5-yl)-methanone] |
| < 0.01 | COc1ccc([C@@H]2CCCN2C(=O)c2cnc3[nH]nc(C)c3c2)cc1 [compound 221, [(S)-2-(4-Methoxy-phenyl)-pyrrolidin-1-yl]-(3-methyl-1H-pyrazolo[3,4-b]pyridin-5-yl)-methanone] |
| < 0.01 | Cc1n[nH]c2ncc(C(=O)N3CCC[C@H]3c3ccc(Cl)cc3F)cc12 [compound 225, [(S)-2-(4-Chloro-2-fluoro-phenyl)-pyrrolidin-1 yl]-(3-methyl-1H-pyrazolo[3,4-b]pyridin-5-yl)-methanone] |
| < 0.01 | Cc1n[nH]c2ncc(C(=O)N3CCC[C@H]3c3ccc(Cl)c(F)c3)cc12 [compound 227, [(S)-2-(4-Chloro-3-fluoro-phenyl)-pyrrolidin-1-yl]-(3-methyl-1H-pyrazolo[3,4-b]pyridin-5-yl)-methanone] |
| 0.01 to 0.1 | Cc1n[nH]c2ncc(C(=O)N3CCC[C@H]3c3ccc4cn[nH]c4c3)cc12 [compound 230, [(S)-2-(1H-Indazol-6-yl)-pyrrolidin-1-yl]-(3-methyl-1H-pyrazolo[3,4-b]pyridin-5-yl)-methanone] |
| 0.01 to 0.1 | Cc1n[nH]c2ncc(C(=O)N3C[C@H](C)C[C@H]3c3ccc(C(F)(F)F)cc3)cc12 [compound 232, (3-Methyl-1H-pyrazolo[3,4-b]pyridin-5-yl)-[(2S,4R)-4-methyl-2-(4-trifluoromethyl-phenyl)-pyrrolidin-1-yl]-methanone] |

Same assay, conditions: IC50 [μM], CDK8 co-expressed with CycC; class symbols

| IC50 [µM] | SMILES |
| --- | --- |
| 0.01 to 0.1 | Cc1n[nH]c2cnc(C(=O)N3CCC[C@H]3c3ccc(Cl)cc3)cc12 [compound 190, [(S)-2-(4-Chloro-phenyl)-pyrrolidin-1-yl]-(3-methyl-1H-pyrazolo[3,4-c]pyridin-5-yl)-methanone] |
| < 0.01 | Cc1n[nH]c2ccc(C(=O)N3CC[C@H]3c3ccc(Cl)cc3)cc12 [compound 202, [(S)-2-(4-Chloro-phenyl)-azetidin-1-yl]-(3-methyl-1H-indazol-5-yl)-methanone] |
| 0.1 to 1 | Cc1n[nH]c2ccc(C(=O)N3CC[C@@H]3c3ccc(Cl)cc3)cc12 [compound 205, [(R)-2-(4-Chloro-phenyl)-azetidin-1-yl]-(3-methyl-1H-indazol-5-yl)-methanone] |
